{
  "source": "ChEMBL document CHEMBL1201862",
  "about": "“PubChem BioAssay data set” (2004)",
  "key": {"[1]": {"molecular_target": "Photoreceptor-specific nuclear receptor (Homo sapiens, UniProt Q9Y5X4)", "format": "functional"}, "[2]": {"test_system": "Streptococcus sp. 'group A'", "assay": "growth inhibition of control SK(-) GAS strain, dose response, counter-screen for streptokinase expression inhibitor project, luminescence, kanamycin, BacTiterGlo, confirmation (AID 1900)", "format": "functional, organism-based"}, "[3]": {"molecular_target": "Peroxisome proliferator-activated receptor gamma/Nuclear receptor corepressor 2 (Homo sapiens, UniProt P37231+Q9Y618)", "sequence (P37231 whole entry)": "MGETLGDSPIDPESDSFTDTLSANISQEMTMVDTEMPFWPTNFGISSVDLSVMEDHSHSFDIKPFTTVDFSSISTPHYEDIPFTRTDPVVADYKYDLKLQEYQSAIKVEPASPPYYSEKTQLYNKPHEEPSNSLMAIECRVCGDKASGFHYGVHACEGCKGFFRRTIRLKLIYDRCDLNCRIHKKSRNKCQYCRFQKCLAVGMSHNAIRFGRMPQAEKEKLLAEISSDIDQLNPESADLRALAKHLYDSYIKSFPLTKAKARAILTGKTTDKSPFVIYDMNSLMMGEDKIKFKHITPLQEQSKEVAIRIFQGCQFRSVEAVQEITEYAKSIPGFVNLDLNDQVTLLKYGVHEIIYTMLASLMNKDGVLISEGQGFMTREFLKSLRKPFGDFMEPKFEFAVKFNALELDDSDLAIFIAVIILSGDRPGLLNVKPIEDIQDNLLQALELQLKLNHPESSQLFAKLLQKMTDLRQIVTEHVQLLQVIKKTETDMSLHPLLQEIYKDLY", "sequence (Q9Y618 whole entry)": "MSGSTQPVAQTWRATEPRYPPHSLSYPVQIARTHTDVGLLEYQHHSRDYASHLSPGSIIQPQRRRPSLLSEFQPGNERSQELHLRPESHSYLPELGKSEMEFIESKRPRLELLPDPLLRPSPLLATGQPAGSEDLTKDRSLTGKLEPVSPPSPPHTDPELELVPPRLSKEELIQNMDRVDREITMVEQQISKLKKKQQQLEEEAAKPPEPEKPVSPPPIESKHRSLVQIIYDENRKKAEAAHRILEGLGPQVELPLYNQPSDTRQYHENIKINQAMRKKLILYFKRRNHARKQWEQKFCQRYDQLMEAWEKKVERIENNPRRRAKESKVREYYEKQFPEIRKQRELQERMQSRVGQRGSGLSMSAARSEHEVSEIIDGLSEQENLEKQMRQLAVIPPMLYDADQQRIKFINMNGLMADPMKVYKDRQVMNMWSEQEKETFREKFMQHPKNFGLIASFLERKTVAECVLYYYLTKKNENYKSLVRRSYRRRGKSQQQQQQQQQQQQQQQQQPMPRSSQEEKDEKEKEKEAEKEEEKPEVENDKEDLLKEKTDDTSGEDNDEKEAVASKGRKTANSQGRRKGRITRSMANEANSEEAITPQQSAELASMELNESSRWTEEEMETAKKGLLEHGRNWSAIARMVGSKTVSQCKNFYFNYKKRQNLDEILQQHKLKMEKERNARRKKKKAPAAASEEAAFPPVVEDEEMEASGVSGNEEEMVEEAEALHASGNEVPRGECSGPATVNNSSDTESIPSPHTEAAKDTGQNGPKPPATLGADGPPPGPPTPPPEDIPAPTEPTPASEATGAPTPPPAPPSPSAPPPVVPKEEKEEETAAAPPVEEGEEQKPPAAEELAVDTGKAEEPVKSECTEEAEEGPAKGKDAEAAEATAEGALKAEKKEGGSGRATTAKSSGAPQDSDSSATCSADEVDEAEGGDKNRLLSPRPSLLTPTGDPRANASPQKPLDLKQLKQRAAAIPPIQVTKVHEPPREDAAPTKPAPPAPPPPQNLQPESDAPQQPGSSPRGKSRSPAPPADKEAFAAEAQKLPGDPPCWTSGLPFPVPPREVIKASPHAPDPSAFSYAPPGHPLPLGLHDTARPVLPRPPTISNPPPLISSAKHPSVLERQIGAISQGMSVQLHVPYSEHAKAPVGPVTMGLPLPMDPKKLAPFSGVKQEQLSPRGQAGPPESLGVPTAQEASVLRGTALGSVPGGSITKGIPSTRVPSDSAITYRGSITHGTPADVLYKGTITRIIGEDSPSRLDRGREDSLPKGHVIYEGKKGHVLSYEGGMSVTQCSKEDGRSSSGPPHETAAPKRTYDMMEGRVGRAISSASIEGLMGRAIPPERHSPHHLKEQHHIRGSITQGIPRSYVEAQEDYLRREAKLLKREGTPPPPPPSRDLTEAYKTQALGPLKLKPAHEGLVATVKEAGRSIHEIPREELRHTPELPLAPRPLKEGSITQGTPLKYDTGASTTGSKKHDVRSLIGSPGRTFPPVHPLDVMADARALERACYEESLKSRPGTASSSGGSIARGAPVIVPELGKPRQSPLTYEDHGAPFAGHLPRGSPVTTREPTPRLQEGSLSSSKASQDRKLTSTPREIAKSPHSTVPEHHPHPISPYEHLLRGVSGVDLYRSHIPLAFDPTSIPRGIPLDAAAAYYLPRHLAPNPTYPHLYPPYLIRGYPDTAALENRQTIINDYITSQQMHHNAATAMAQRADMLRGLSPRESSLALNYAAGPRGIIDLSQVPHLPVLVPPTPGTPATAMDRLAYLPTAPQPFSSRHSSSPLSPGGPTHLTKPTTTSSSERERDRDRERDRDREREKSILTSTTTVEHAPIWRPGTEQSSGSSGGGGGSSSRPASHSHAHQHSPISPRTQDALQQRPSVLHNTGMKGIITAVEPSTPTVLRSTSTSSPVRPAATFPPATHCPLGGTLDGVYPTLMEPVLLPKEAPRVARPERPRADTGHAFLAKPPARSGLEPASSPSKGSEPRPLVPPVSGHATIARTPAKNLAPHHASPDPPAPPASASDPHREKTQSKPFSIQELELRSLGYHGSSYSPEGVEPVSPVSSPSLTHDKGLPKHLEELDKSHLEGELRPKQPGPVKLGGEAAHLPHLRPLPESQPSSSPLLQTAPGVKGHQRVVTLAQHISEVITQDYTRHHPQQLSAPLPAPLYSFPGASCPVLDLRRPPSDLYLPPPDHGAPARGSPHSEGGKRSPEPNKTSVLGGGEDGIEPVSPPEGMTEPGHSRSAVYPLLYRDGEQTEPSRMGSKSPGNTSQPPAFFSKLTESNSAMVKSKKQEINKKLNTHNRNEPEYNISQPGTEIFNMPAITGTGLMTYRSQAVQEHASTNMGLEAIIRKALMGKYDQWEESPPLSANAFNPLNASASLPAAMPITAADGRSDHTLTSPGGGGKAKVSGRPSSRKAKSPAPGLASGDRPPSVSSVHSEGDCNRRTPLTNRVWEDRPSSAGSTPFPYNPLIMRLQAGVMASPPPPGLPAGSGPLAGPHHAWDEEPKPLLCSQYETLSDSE", "format": "functional"}, "Streptococcus [4]": {"test_system": "Streptococcus", "assay": "Group A Streptococcus viability loss, dose response, counter-screen for streptokinase expression inhibitor project, luminescence, BacTiterGlo (AID 1915);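 also: potency for reduction of bacterial viability or growth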", "format": "functional, organism-based"}, "[5]": {"molecular_target": "NAD-dependent protein deacylase sirtuin-5, mitochondrial (Homo sapiens, UniProt Q9NXA8)", "assay": "SIRT5 desuccinylase inhibitors, dose response, biochemical, fluorescence imaging, cherry-pick, set 5 (AID 720591);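 also: desuccinylation of succinyl peptide AMC substrate read as fluorescence after trypsin release; potency of inhibitors that lower fluorescence and may act on trypsin instead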"}, "Aspartyl aminopeptidase": {"molecular_target": "T1, Aspartyl aminopeptidase (Plasmodium falciparum 3D7, UniProt Q8I2J3)", "T1 sequence (Q8I2J3 whole entry)": "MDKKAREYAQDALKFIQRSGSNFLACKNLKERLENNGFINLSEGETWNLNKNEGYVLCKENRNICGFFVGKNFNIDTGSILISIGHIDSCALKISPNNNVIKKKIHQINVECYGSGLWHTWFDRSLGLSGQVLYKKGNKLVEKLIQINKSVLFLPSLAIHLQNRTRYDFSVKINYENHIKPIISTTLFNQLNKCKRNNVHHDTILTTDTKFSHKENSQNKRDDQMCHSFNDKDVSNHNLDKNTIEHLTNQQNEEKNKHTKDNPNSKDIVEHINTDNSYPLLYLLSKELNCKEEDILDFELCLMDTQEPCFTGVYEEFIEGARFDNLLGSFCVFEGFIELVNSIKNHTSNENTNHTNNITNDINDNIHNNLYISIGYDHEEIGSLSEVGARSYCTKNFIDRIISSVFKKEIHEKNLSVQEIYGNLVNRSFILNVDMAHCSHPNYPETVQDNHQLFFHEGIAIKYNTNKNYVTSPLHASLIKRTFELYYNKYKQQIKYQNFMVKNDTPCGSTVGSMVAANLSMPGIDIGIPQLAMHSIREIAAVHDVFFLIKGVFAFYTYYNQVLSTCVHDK"}, "Procathepsin L": {"molecular_target": "Procathepsin L (Homo sapiens, UniProt P07711)", "sequence (P07711 whole entry)": "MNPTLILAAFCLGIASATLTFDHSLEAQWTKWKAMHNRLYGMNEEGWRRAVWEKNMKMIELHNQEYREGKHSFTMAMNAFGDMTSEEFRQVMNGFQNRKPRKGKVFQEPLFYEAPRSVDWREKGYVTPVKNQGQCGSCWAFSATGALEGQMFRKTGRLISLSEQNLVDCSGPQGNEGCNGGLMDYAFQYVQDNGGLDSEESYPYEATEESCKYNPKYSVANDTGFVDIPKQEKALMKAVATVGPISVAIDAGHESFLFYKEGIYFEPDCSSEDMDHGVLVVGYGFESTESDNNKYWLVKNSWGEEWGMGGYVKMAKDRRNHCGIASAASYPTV"}, "H9c2": {"test_system": "H9c2", "assay": "cells", "format": "functional, cell-based", "settings": "Rattus norvegicus, H9c2, Myocardium"}, "Streptococcus [6]": {"test_system": "Streptococcus", "assay": "Luminescence Microorganism-Based Dose Response Follow up to Identify Compounds Cytotoxic to Streptococcus. [Related pubchem assays: 1677 (Project Summary), 1915, 1914, 1902 (Retest at Dose), 1900 (Counter Screen), 1662 (Primary HTS)]", "format": "functional, organism-based"}, "Streptokinase A": {"molecular_target": "T2, Streptokinase A (Streptococcus pyogenes serotype M1, UniProt P10520)", "T2 sequence (P10520 whole entry)": "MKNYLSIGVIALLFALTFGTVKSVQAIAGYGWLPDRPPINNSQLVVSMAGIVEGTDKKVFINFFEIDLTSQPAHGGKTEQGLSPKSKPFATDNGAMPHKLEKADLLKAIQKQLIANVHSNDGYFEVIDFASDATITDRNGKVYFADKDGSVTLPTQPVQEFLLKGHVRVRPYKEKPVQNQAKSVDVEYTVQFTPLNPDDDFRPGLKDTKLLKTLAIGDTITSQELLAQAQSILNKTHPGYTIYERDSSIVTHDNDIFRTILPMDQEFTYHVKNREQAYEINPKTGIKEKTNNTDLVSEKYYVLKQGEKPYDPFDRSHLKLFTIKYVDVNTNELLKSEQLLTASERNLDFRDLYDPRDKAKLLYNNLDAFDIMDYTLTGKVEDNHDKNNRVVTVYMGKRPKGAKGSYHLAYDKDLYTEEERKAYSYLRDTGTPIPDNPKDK", "assay": "S. pyogenes streptokinase expression inhibitors, potency, dose response, plasminogen activation absorbance, OD405 (AID 1914);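 also: secreted streptokinase activity via plasminogen activation per viability signal from cell pellet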", "format": "functional, Streptococcus pyogenes M1 GAS"}, "Mucolipin-3": {"molecular_target": "T3, Mucolipin-3 (Homo sapiens, UniProt Q8TDD5)", "T3 sequence (Q8TDD5 whole entry)": "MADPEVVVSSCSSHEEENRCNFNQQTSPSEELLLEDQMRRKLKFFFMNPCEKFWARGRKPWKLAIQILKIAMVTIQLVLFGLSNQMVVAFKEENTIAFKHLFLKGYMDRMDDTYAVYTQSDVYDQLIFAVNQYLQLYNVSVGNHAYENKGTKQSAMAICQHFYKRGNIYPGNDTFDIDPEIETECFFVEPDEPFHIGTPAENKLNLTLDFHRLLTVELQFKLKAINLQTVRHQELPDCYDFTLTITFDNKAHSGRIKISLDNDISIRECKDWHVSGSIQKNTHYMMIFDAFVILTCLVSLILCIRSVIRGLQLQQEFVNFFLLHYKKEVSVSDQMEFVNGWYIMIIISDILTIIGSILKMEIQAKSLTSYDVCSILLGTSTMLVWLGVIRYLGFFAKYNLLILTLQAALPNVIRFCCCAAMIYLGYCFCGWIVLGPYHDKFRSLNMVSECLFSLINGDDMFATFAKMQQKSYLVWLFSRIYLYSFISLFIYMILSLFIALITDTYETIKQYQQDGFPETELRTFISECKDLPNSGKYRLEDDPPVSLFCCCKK", "assay": "Dose response cell-based high-throughput screening assay for agonists of the transient receptor potential channel ML3 (TRPML3). [Related pubchem assays: 1526, 1424, 1448 ]", "format": "functional"}, "Ion channel NompC [7]": {"molecular_target": "T4, Ion channel NompC (Danio rerio, UniProt Q7T1G6)", "T4 sequence (Q7T1G6 whole entry)": "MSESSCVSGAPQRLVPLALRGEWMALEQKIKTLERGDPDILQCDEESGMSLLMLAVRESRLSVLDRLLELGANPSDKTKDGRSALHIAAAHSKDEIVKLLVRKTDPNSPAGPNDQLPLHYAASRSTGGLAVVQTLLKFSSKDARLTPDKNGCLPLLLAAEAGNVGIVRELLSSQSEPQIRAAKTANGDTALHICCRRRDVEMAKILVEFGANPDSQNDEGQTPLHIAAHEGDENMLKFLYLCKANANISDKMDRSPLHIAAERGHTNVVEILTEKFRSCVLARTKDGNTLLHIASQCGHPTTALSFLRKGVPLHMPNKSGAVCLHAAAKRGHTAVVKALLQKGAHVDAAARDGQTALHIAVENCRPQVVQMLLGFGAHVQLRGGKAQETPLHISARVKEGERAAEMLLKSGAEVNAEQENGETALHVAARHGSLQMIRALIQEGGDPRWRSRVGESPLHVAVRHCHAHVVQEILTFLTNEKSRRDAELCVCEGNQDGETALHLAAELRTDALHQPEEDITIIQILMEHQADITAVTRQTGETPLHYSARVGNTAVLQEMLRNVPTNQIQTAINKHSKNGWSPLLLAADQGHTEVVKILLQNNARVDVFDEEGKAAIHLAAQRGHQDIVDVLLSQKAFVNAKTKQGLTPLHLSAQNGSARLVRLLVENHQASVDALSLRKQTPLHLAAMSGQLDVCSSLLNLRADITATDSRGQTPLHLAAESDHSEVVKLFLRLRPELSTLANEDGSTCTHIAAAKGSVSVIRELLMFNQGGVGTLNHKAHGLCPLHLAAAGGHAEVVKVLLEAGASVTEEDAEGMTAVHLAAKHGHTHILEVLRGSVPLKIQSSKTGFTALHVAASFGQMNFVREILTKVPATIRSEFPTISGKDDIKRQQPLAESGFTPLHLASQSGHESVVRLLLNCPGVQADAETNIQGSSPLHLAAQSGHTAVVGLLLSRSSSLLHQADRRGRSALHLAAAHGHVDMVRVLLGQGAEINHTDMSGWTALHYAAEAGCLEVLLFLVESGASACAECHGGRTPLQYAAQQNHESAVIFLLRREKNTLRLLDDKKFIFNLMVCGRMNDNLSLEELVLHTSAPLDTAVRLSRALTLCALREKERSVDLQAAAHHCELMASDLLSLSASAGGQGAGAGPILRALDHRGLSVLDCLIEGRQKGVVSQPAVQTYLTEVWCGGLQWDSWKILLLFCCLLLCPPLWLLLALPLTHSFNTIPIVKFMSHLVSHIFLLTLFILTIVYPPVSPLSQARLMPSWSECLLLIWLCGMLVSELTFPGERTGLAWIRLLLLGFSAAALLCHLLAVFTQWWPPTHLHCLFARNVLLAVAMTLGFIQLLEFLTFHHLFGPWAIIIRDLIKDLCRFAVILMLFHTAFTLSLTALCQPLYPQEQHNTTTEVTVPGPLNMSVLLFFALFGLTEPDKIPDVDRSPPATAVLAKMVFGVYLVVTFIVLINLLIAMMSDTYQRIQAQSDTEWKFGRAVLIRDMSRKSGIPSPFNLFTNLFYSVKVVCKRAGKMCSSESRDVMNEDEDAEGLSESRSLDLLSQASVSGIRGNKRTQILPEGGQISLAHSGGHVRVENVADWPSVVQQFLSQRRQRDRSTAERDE", "assay": "Fluorescence counterscreen assay for TRPML3 agonists: dose response cell-based high-throughput screening assay to identify agonists of the transient receptor potential channel N1 (TRPN1). [Related pubchem assays: 1526, 1424, 1448 ]", "format": "functional"}, "Ion channel NompC [8]": {"molecular_target": "T4, Ion channel NompC", "assay": "TRPML3 and TRPML2 channel agonists, cell-based, patch clamp, Fura-2 profiling panel, panel member TRPN1 Dose Response (AID 2116)"}},
  "note": "Active and inactive are the calls of the source.",
  "data": [
    {"smiles": "Cc1cc(N2C(=O)C(O)=C(C(=O)c3cc4ccccc4o3)C2c2ccc(Br)cc2)no1", "note": "(stereo not given)", "values": [
      {"measurement": "IC50", "setting": "[1]", "result": "> 39.8 µM (not active)"},
      {"measurement": "EC50", "setting": "[2]", "result": "2.01 µM (active)"},
      {"measurement": "IC50", "setting": "[3]", "result": "2.92 µM (active)"},
      {"measurement": "EC50", "setting": "Streptococcus [4]", "result": "2.78 µM (active)"},
      {"measurement": "AC50", "setting": "[5]", "result": "17.5 µM (active)"}
    ]},
    {"smiles": "CCOC(=O)Cc1csc(NC(=O)NC2(C(F)(F)F)Oc3ccccc3O2)n1", "values": [
      {"measurement": "IC50", "setting": "Aspartyl aminopeptidase", "result": "3.02 µM (active)"},
      {"measurement": "IC50", "setting": "Procathepsin L", "result": "> 59.6 µM (not active)"},
      {"measurement": "IC50", "setting": "H9c2", "result": "17.5 µM (active)"}
    ]},
    {"smiles": "FC(F)(F)c1cc(-c2ccco2)nc(NCc2ccc(Cl)cc2)n1", "values": [
      {"measurement": "EC50", "setting": "[2]", "result": "8.27 µM (active)"},
      {"measurement": "EC50", "setting": "Streptococcus [6]", "result": "9.49 µM (active)"},
      {"measurement": "EC50", "setting": "Streptokinase A", "result": "9.32 µM (active)"},
      {"measurement": "EC50", "setting": "Streptococcus [4]", "result": "> 150 µM (not active)"}
    ]},
    {"smiles": "O=S(=O)(Nc1ccccc1N1CCOCC1)c1ccc(Cl)s1", "values": [
      {"measurement": "EC50", "setting": "Mucolipin-3", "result": "1.36 µM (active)"},
      {"measurement": "EC50", "setting": "Ion channel NompC [7]", "result": "> 29.9 µM (not active)"},
      {"measurement": "EC50", "setting": "Ion channel NompC [8]", "result": "> 29.9 µM (inactive)"}
    ]}
  ]
}
